Data taken from paper PMC5590070, “Anti-Inflammatory, Antioxidant, Antibiotic, and Cytotoxic Activities of Tanacetum vulgare L. Essential Oil and Its Constituents” (Medicines, 2017).
Converted amounts (≈) assume the structure as drawn. Where two headings read alike, the source gives them in different places.

What was measured:
[1] = Cytotoxic assay, resazurin reduction test, 48 h; format: cell-based, human; conditions: human
Experimental: (§1) We plated in 96-well microplates—each containing a 100 µL culture medium—exponentially growing cells of human skin fibroblasts WS1, human HaCaT keratinocytes, human lung carcinoma A-549, and human colon adenocarcinoma DLD-1 at a density of 5 × 10^3 cells per well (Costar, Corning Inc., Lowell, MA, USA). The cells were allowed to adhere for 16 h before treatment. We then treated cells with T. vulgare essential oil or dissolved compounds in DMSO. The final concentration of DMSO in the culture medium was 0.5% (v/v) to avoid solvent toxicity. After 48 h, we assessed the cytotoxicity using the resazurin reduction test. Fluorescence was measured on an automated Fluoroskan Ascent FL^TM plate reader (Labsystems, Milford, MA, USA) using an excitation wavelength of 530 nm and an emission wavelength of 590 nm.

[2] = test system: Staphylococcus aureus (ATCC 25923); assay: Antibacterial hydrophobic assay (resazurin); format: cell-based
Source text: (§2) We tested the antibacterial activities of T. vulgare essential oil and compounds against gram-negative Escherichia coli (ATCC bacteria 25922) and gram-positive Staphylococcus aureus (ATCC bacteria 25923) using the antibacterial hydrophobic assay as described by Côté et al.. This new method was developed and used in this work as classical methods including disc diffusion and microdilution assays are sometimes inefficient for testing a matrix or compounds of a hydrophobic nature. Briefly, after microorganisms passed 16–18 h at 37 °C in a nutrient broth base (Difco), we transferred 20 µL methanol containing growing concentrations of essential oil and compounds (3.1 to 200 µg·mL^−1) onto nutrient agar of 96-well plates. We then added bacterial strains having a concentration of 5 × 10^3 colony forming units (CFU) per mL of nutrient broth. […] The blank consisted of culture medium only and was subtracted from all subsequent measurements of every other well. The 96-well plates were then incubated at 37 °C for 5 h to foster bacterial growth. We then added 100 µL of resazurin sodium salt solution having a concentration of 50 µg·mL^−1 (Sigma R-2127, St-Louis, MO, USA) to each well.

[3] = test system: Escherichia coli (ATCC 25922); assay: Antibacterial hydrophobic assay (resazurin); format: cell-based
Source text: as §2

[4] = test system: NO production in murine macrophage RAW 264.7 cells; assay: Inhibition of NO production in LPS-stimulated RAW 264.7 macrophages (Griess reaction); format: cell-based; conditions: for IC50 / Anti-Inflammation IC50: inhibition of NO production, RAW 264.7, 100 ng·mL^−1 LPS, 24 h; for IC50: read-out: Anti-Inflammation IC50
Experimental: We evaluated the inhibition NO production by T. vulgare essential oil and compounds as described by Legault et al.. Control L-NAME was used as positive control. Murine macrophage RAW 264.7 cells were incubated with essential oil or dissolved compounds in DMSO and then stimulated with 100 ng·mL^−1 LPS and incubated at 37 °C. After 24 h, we collected the cell-free supernatants and immediately determined the NO concentration using the Griess reaction. We read the absorbance at 540 nm using an automated Varioskan Ascent plate reader (Labsystems, Milford, MA, USA), and quantified the presence of nitrite by comparing with a NaNO2 standard curve.

in vitro = conditions: human
Experimental: as §1
We assessed the cytotoxic activity of T. vulgare essential oil and its main compounds against human lung carcinoma A-549, colon adenocarcinoma DLD-1, human keratinocytes HaCaT, and healthy WS1 cell lines.

[5] = test system: human skin fibroblasts WS1; assay: Cell-based antioxidant DCFH-DA assay (tert-butylhydroperoxide-induced DCFH oxidation); conditions: inhibition of DCFH oxidation induced by tert-butylhydroperoxide, WS1 cells; for IC50: Homo sapiens
Experimental: Antioxidant activity was evaluated using the DCFH-DA assay as described by Girard-Lalancette et al.. To assess antioxidant activity, we incubated the human skin fibroblasts WS1 for 1 h with a growing concentration of essential oil or dissolved compounds in DMSO. We then added 100 µL of 200 µM tert-butylhydroperoxide and immediately measured fluorescence as well as again after 90 min later. Measurements were performed on an automated plate reader (Fluoroskan Ascent FL, Labsystems, Milford, MA, USA) using an excitation wavelength of 485 nm and an emission wavelength of 530 nm.

[6] = test system: human colon adenocarcinoma DLD-1; assay: Cytotoxic assay, resazurin reduction test, 48 h; format: cell-based; conditions: DLD-1, 48 h
Experimental: as §1

[7] = test system: human skin fibroblasts WS1; assay: Cytotoxic assay, resazurin reduction test, 48 h; format: cell-based; conditions: WS1, 48 h
Experimental: as §1

[8] = test system: human lung carcinoma A-549; assay: Cytotoxic assay, resazurin reduction test, 48 h; format: cell-based; conditions: A-549, 48 h
Experimental: as §1

[9] = A-549 lung carcinoma cells, A-549, 48 h, read-out: Cytotoxicity IC50 A549
[10] = DLD-1 colon adenocarcinoma cells, DLD-1, 48 h, read-out: Cytotoxicity IC50 DLD1
[11] = WS1 skin fibroblasts, WS1, 48 h, read-out: Cytotoxicity IC50 WS1
[12] = Staphylococcus aureus, ATCC25923, S. aureus, 50% inhibition of bacterial growth
[13] = Escherichia coli, ATCC25922, E. coli, 50% inhibition of bacterial growth
[14] = S. aureus, 50% inhibition of bacterial growth
[15] = E. coli, 50% inhibition of bacterial growth
[16] = A-549, 48 h, read-out: Cytotoxicity IC50 A549
[17] = DLD-1, 48 h, read-out: Cytotoxicity IC50 DLD1
[18] = WS1, 48 h, read-out: Cytotoxicity IC50 WS1
[19] = Staphylococcus aureus, ATCC25923, read-out: Antibacterial IC50 S. aureus
[20] = Escherichia coli, ATCC25922, read-out: Antibacterial IC50 E. coli

Row | Structure (SMILES) | IC50 [2, 12] | IC50 [3, 13] | IC50 ([4]; Mus musculus, RAW264.7) | IC50 at 48 h (in vitro) | IC50 at 48 h [1, 9] | IC50 at 48 h [1, 10] | IC50 at 48 h [1, 11] | IC50 [5] | further results
1 | C=C1CC[C@H]2O[C@]2(C)CC[C@@H]2[C@@H]1CC2(C)C [Caryophyllene oxide] |  |  |  |  |  |  |  |  | Cytotoxicity IC50 DLD1 [6]: 43 ± 3 µg/mL; Cytotoxicity IC50 WS1 [7]: 50 ± 4 µg/mL; Cytotoxicity IC50 A549 [8]: 36 ± 2 µg/mL; Antibacterial IC50 S. aureus [2, 14]: 10.4 ± 0.9 µg/mL; Antibacterial IC50 E. coli [3, 15]: 97 ± 2 µg/mL; Anti-Inflammation IC50 [4]: 183 ± 15 µg/mL; Antioxidant IC50 [5]: 6.2 ± 0.5 µg/mL
2 | O=C(N[C@H](CO)[C@H](O)c1ccc([N+](=O)[O-])cc1)C(Cl)Cl [Chloramphenicol, reference compound] |  |  |  |  |  |  |  |  | MIC90 ([2]; Staphylococcus aureus, ATCC25923, S. aureus, antibiotic positive control): 0.73 µg/mL (≈ 2.26 µM); MIC90 ([3]; Escherichia coli, ATCC25922, E. coli, antibiotic positive control): 0.9 µg/mL (≈ 2.79 µM)
3 | COc1cc([C@@H]2c3cc4c(cc3[C@@H](O[C@@H]3O[C@@H]5CO[C@@H](C)O[C@H]5[C@H](O)[C@H]3O)[C@H]3COC(=O)[C@H]23)OCO4)cc(OC)c1O [Etoposide, reference compound] |  |  |  |  |  |  |  |  | IC50 at 48 h ([1]; A-549 lung carcinoma cells, A-549, cytotoxic positive control, read-out: Cytotoxicity IC50 A-549): 2300 nM; IC50 at 48 h ([1]; DLD-1 colon adenocarcinoma cells, DLD-1, cytotoxic positive control, read-out: Cytotoxicity IC50 DLD-1): 2800 nM; IC50 at 48 h ([1]; WS1 skin fibroblasts, WS1, cytotoxic positive control, read-out: Cytotoxicity IC50 WS1): 19000 nM
4 | COC(=O)[C@@H](N)CCCNC(N)=N[N+](=O)[O-] [L-NAME, reference compound] |  |  |  |  |  |  |  |  | inhibition at 1000 µM ([4]; Mus musculus, RAW264.7, 1 mM, positive control): 64.1%
5 | C=C(C)[C@H]1CC=C(C)CC1 [Limonene] |  |  |  |  |  |  |  |  | Cytotoxicity IC50 DLD1 [6]: 31 ± 3 µg/mL; Cytotoxicity IC50 A549 [8]: 71 ± 6 µg/mL; Antibacterial IC50 S. aureus [2, 14]: >200 µg/mL; Antibacterial IC50 E. coli [3, 15]: >200 µg/mL; Anti-Inflammation IC50 [4]: >200 µg/mL
6 | O=c1c(O)c(-c2ccc(O)c(O)c2)oc2cc(O)cc(O)c12 [Quercetin, reference compound] |  |  |  |  |  |  |  | 0.043 µg/mL (≈ 0.142 µM) | 
7 | CC1=CCC(=C(C)C)CC1 [Terpinolene] |  |  | > 200 µg/mL |  |  |  |  |  | IC50 at 48 h [1, 16]: > 200 µg/mL; IC50 at 48 h [1, 17]: > 200 µg/mL; IC50 at 48 h [1, 18]: > 200 µg/mL; IC50 [2, 19]: > 200 µg/mL; IC50 [3, 20]: > 200 µg/mL
8 | CC1=CC=C(C(C)C)CC1 [α-Terpinene] |  |  | 46 ± 4 µg/mL (≈ 338 µM) | 28 to 112 µg/mL (≈ 206 to 822 µM) |  |  |  | > 200 µg/mL | IC50 at 48 h [1, 16]: 63 ± 10 µg/mL; IC50 at 48 h [1, 17]: 73 ± 7 µg/mL; IC50 at 48 h [1, 18]: 53 ± 12 µg/mL; IC50 [2, 19]: > 200 µg/mL; IC50 [3, 20]: > 200 µg/mL
9 | C=C1CCC2CC1C2(C)C (stereo not drawn) [β-Pinene] | > 200 µg/mL | > 200 µg/mL | 46 ± 9 µg/mL (≈ 338 µM) | 28 to 112 µg/mL (≈ 206 to 822 µM) |  |  |  | > 200 µg/mL | IC50 at 48 h [1, 16]: 43 ± 4 µg/mL; IC50 at 48 h [1, 17]: 49.4 ± 0.3 µg/mL; IC50 at 48 h [1, 18]: 29 ± 14 µg/mL
10 | CC1=CCC(C(C)C)=CC1 [γ-Terpinene] |  |  | > 200 µg/mL | 28 to 112 µg/mL (≈ 206 to 822 µM) |  |  |  |  | IC50 at 48 h [1, 16]: 112 ± 15 µg/mL; IC50 at 48 h [1, 17]: > 200 µg/mL; IC50 at 48 h [1, 18]: 82 ± 15 µg/mL; IC50 [2, 19]: 50 ± 9 µg/mL (≈ 367 µM); IC50 [3, 20]: > 200 µg/mL

Second part, led by results:

Row | IC50 [2, 12] | IC50 [3, 13] | IC50 ([4]; Mus musculus, RAW264.7) | IC50 at 48 h (in vitro) | Structure (SMILES) | IC50 at 48 h [1, 9] | IC50 at 48 h [1, 10] | IC50 at 48 h [1, 11] | IC50 [5] | further results
11 | > 200 µg/mL | > 200 µg/mL | > 200 µg/mL | > 200 µg/mL | CC12CCC(CC1)C(C)(C)O2 [1,8-Cineole] | > 200 µg/mL | > 200 µg/mL | > 200 µg/mL | > 200 µg/mL | 
12 | > 200 µg/mL | > 200 µg/mL | > 200 µg/mL | > 200 µg/mL | CC1(C)C2CCC1(C)C(O)C2 (stereo not drawn) [Borneol] | > 200 µg/mL | > 200 µg/mL | > 200 µg/mL | > 200 µg/mL | 
13 | > 200 µg/mL | > 200 µg/mL | > 200 µg/mL |  | CC(=O)OC1CC2CCC1(C)C2(C)C (stereo not drawn) [Bornyl acetate] | > 200 µg/mL | > 200 µg/mL | > 200 µg/mL | > 200 µg/mL | 
14 | > 200 µg/mL | > 200 µg/mL | > 200 µg/mL | 28 to 112 µg/mL (≈ 206 to 822 µM) | C=C1C2CCC(C2)C1(C)C (stereo not drawn) [Camphene] | 72 ± 2 µg/mL | 75 ± 5 µg/mL | 49 ± 1 µg/mL | > 200 µg/mL | 
15 | 22 to 26 µg/mL (≈ 145 to 171 µM) | 22 to 26 µg/mL (≈ 145 to 171 µM) | > 200 µg/mL | > 200 µg/mL | CC12CCC(CC1=O)C2(C)C (stereo not drawn) [Camphor] | > 200 µg/mL | > 200 µg/mL | > 200 µg/mL | > 200 µg/mL | Antibacterial IC50 S. aureus [2, 14]: 26 ± 3 µg/mL; Antibacterial IC50 E. coli [3, 15]: 22 ± 1 µg/mL
16 | > 200 µg/mL | > 200 µg/mL | > 200 µg/mL |  | CC1=CCC(O)(C(C)C)CC1 (stereo not drawn) [Terpinen-4-ol] | > 200 µg/mL | > 200 µg/mL | > 200 µg/mL | > 200 µg/mL | 
17 | > 200 µg/mL | > 200 µg/mL | > 200 µg/mL |  | Cc1ccc(C(C)C)cc1 [p-Cymene] | > 200 µg/mL | > 200 µg/mL | > 200 µg/mL | > 200 µg/mL | 
18 |  |  | 30 ± 4 µg/mL (≈ 220 µM) | 28 to 112 µg/mL (≈ 206 to 822 µM) | CC1=CCC2CC1C2(C)C (stereo not drawn) [α-Pinene] | 35 ± 6 µg/mL | 58 ± 18 µg/mL | 57 ± 4 µg/mL | 3.4 ± 0.2 µg/mL (≈ 25 µM) | 
19 | > 200 µg/mL | > 200 µg/mL | > 200 µg/mL | 28 to 112 µg/mL (≈ 137 to 548 µM) | C=C1CC/C=C(\C)CC[C@@H]2[C@@H]1CC2(C)C [β-Caryophyllene] | 55 ± 5 µg/mL | 97 ± 6 µg/mL | 59 ± 7 µg/mL | > 200 µg/mL | 
